Experimental data as given in US8163939B2, “Ascorbic acid derivative or salt thereof, production method thereof, and cosmetic” (Seikwa Kasei Company, Limited, priority 2007, dated 2012).

Experiments:
[1] = Stability Test 2: 2% aqueous solution, pH7, 50° C., 4 weeks (residual rate, odor, coloration); format: physicochemical
Protocol: (§1) Aqueous solutions (2%) of various test samples were adjusted to pH7 with a dilute sodium hydroxide aqueous solution, and charged into 50 mL screw tubes, and the tubes were sealed and stored at room temperature for 4 weeks. Thereafter, HPLC measurement were performed (using liquid chromatography manufactured by Tosoh Corp.) and the residual rate was obtained based on the peak area. The residual rate, odor(odor change) and degree of coloration were evaluated based on the following methods and standards, and the results are shown in Table 41.
The same test as in Test Example 2 was carried out excepting that the sample was stored at 50° C. for 4 weeks instead of storing at room temperature for 4 weeks.

[2] = Moisturizing test: moisturizing effect by water retention force; format: physicochemical
Protocol: A sample shown later was dried, and the dried sample was spread in an amount of about 0.4 g (this weight is represented by W0) on the bottom of a weighing bottle (diameter: 3.6 cm, height excluding lid: 1.8 cm) so as to give uniform thickness. The sample contained in the weighing bottle was allowed to stand still in a constant humidity and constant temperature vessel (ENVIROS KCL-1000, TOKYO RIKAKIKAI CO, LTD) under environments of 25° C. and 65% RH. The weight was measured periodically, waiting until sufficient moisture absorption to attain equilibrium of weight increase (about 48 hours). Thereafter, the sample was transferred to under environments of 25° C. and 20% RH (in sealed vessel containing a saturated CH3COOK aqueous solution filled in the bottom part). From the weight after 24 hours (this weight is represented by W1), the amount of retained water per 1 g of the dried sample was calculated according to the following formula. (W1−W0)/W0
From the water amount thus calculated, the moisturizing effect was judged based on the following judging criterion, and the results are shown in Table 43.
Three compounds: 2,3-di-O-glyceryl ascorbic acid, 2,3-di-O-phenylglyceryl ascorbic acid, and glycerin, and
Six compounds: ascorbic acid, ascorbic acid glucoside, 2-O-glyceryl ascorbic acid, 3-O-glyceryl ascorbic acid, 3-O-butylglyceryl ascorbic acid and 3-O-octylglyceryl ascorbic acid, which were adjusted to pH7 with a dilute sodium hydroxide aqueous solution and concentrated.
◯: 25 mg or more and less than 40 mg
Δ: 10 mg or more and less than 25 mg

[3] = Stability Test 1: 2% aqueous solution, pH7, room temperature, 4 weeks (residual rate, odor, coloration); format: physicochemical
Protocol: as §1
◯: 80% or more and less than 90%
Δ: 60% or more and less than 80%
X: 20% or more and less than 60%
It was evaluated according to the following criterion by 10 panelists.
Based on the evaluation results, classification was conducted as shown below.
◯: total point of 10 panelists is 25 or more
Δ: total point of 10 panelists is 16 to 24
X: total point of 10 panelists is 15 or less
3: almost no change as compared with that immediately after preparation
2: coloration is observed as compared with that immediately after preparation
1: intense coloration is observed as compared with that immediately after preparation

B16 melanoma 4A5 cell = test: Whitening test: theophylline-induced melanine production in B16 melanoma 4A5 cells; format: cell-based, mouse; details: sample at a concentration of 100 μM or less; theophylline-induced melanine production; 3 days culture; N=4
How it was run: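 Murine B16 4A5 cells were grown 24 h, then cultured 3 days in D-MEM with 10% FBS, 0.2 mM theophylline and sample. Melanin was dissolved in 2N NaOH at 60° C for 15 min, read at 450 nm against a synthetic-melanin standard and normalised to BCA protein. Suppression % = [1−(A−B)/(C−B)]×100 versus normal and control groups, with samples at ≤100 μM, N=4.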

[4] = tested on: Normal human dermal fibroblasts; test: Collagen production of human fibroblast 2 (100 μM or 500 μM; 2, 4 and 7 days); format: cell-based; details: for Collagen production amount in comparison with the control group (% value when the control group is 100%): Table 46, 100 μM or 500 μM (not stated which), average ± standard error, N=4
Protocol: Normal human dermal fibroblasts were regulated with a 10% (v/v) fetal bovine serum (manufactured by Roshe Diagnostics)-containing D-MEM so as to give a cell density of 2.5×10^4 cells/well, then, pre-incubation for 24 hours was performed on a 96-well plate. After the medium was removed, a sample regulated with a 5% (v/v) fetal bovine serum-containing D-MEM to a concentration of 100 μM was added to each well, then, cultured for 48 hours under 37° C. and 5% CO2. After completion of culturing, the amount of free collagen was measured using Sircol collagen assay kit (manufactured by Biocolor). The measurement was carried out at N=4.
Free collagen was measured under the same conditions as in Test Example 5 excepting that the concentration of each sample was 100 μM or 500 μM and culturing was carried out for 2 days, 4 days and 7 days. The measurement was carried out at N=4, and the average and standard error, in four test examples, of values of the collagen production amount in comparison with the control group (% value when the control group is 100%) are shown in Tables 46 and 47.

[5] = tested on: Normal human dermal fibroblasts; test: Collagen production of human fibroblast (Sircol collagen assay, 100 μM, 48 hours); format: cell-based; details: Homo sapiens, Fibroblast, cultured 48 hours, N=4, read-out: Collagen production promoting effect (collagen production amount, % of control group)
How it was run: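 Dermal fibroblasts pre-cultured 24 h, then exposed 48 h to sample at 100 μM in 5% FBS D-MEM at 37 °C, 5% CO2. Free collagen measured by Sircol assay, N=4, expressed as % of untreated control.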

[6] = storage period 2 weeks, 10 panelists
[7] = storage period 4 weeks, 10 panelists

Row | SMILES | Residual rate ([1]; storage period 0) | Coloration ([1]; storage period 0, 10 panelists) | Odor ([1]; storage period 0, 10 panelists) | Residual rate ([1]; storage period 2 weeks) | Coloration [1, 6] | Odor [1, 6] | Residual rate ([1]; storage period 4 weeks) | Coloration [1, 7] | Odor [1, 7] | Residual rate ([3]; storage period 0) | Coloration ([3]; storage period 0, 10 panelists) | Odor ([3]; storage period 0, 10 panelists) | Residual rate ([3]; storage period 2 weeks) | Coloration [3, 6] | Odor [3, 6] | Residual rate ([3]; storage period 4 weeks) | Coloration [3, 7] | Odor [3, 7] | Whitening effect (melanine production suppressing rate) (B16 melanoma 4A5 cell) | Collagen production amount in comparison with the control group (% value when the control group is 100%) ([4]; culturing period 2 days) [%] | other results
1 | O=C1O[C@H]([C@@H](O)CO)C(O)=C1OCC(O)CO (stereo partly shown) [Example 3, 2-O-glyceryl ascorbic acid] | ⊚ (⊚: 90% or more) | ◯ (◯: total point of 10 panelists is 25 or more) | ◯ (◯: total point of 10 panelists is 25 or more) | ⊚ (⊚: 90% or more) | ◯ (◯: total point of 10 panelists is 25 or more) | ◯ (◯: total point of 10 panelists is 25 or more) | ⊚ (⊚: 90% or more) | ◯ (◯: total point of 10 panelists is 25 or more) | ◯ (◯: total point of 10 panelists is 25 or more) | ⊚ (⊚: 90% or more) | ◯ (◯: total point of 10 panelists is 25 or more) | ◯ (◯: total point of 10 panelists is 25 or more) | ⊚ (⊚: 90% or more) | ◯ (◯: total point of 10 panelists is 25 or more) | ◯ (◯: total point of 10 panelists is 25 or more) | ⊚ (⊚: 90% or more) | ◯ (◯: total point of 10 panelists is 25 or more) | ◯ (◯: total point of 10 panelists is 25 or more) | + (20 to 40%:+) | 226 ± 10 | moisturizing effect (in words) ([2]; conclusion from Table 43, compared with ascorbic acid): excellent moisturizing effect by far than ascorbic acid; Collagen production amount in comparison with the control group (% value when the control group is 100%) ([4]; culturing period 4 days): 193 ± 6%; Collagen production amount in comparison with the control group (% value when the control group is 100%) ([4]; culturing period 7 days): 258 ± 22%; activity at 100 µM [5]: 100 to 200%
2 | O=C1O[C@H]([C@@H](O)CO)C(O)=C1O [ascorbic acid] | ◯ (◯: 80% or more and less than 90%) | ◯ (◯: total point of 10 panelists is 25 or more) | ◯ (◯: total point of 10 panelists is 25 or more) | X (X: 20% or more and less than 60%) | Δ (Δ: total point of 10 panelists is 16 to 24) | Δ (Δ: total point of 10 panelists is 16 to 24) | X (X: 20% or more and less than 60%) | X (X: total point of 10 panelists is 15 or less) | X (X: total point of 10 panelists is 15 or less) | ⊚ (⊚: 90% or more) | ◯ (◯: total point of 10 panelists is 25 or more) | ◯ (◯: total point of 10 panelists is 25 or more) | ◯ (◯: 80% or more and less than 90%) | Δ (Δ: total point of 10 panelists is 16 to 24) | Δ (Δ: total point of 10 panelists is 16 to 24) | X (X: 20% or more and less than 60%) | X (X: total point of 10 panelists is 15 or less) | X (X: total point of 10 panelists is 15 or less) | ± (<20%:±) | 252 ± 12 | Judgement of moisturizing effect (water amount) [2]: X (X: less than 10 mg); collagen production promoting effect over time (in words) ([4]; 100 μM or 500 μM, culturing 2, 4 and 7 days): lowers over time; Collagen production amount in comparison with the control group (% value when the control group is 100%) ([4]; culturing period 4 days): 182 ± 9%; Collagen production amount in comparison with the control group (% value when the control group is 100%) ([4]; culturing period 7 days): 139 ± 14%; activity at 100 µM [5]: 100 to 200%
